In article PMC9834664, “Linking medicinal cannabis to autotaxin–lysophosphatidic acid signaling” (Life Science Alliance, 2023):
“Also recorded” adds a separate entry of the source.

Experiments:
[1] = target: T1, ATX-γ (Homo sapiens, UniProt Q13822); assay: End-point choline release assay, relative inhibition by cannabinoids; type: biochemical; conditions: 10 µM compound; for inhibition of ATX-γ catalysis: LPC 18:1 200 µM; for ANOVA comparison with CTRL, ATX-γ inhibition: significance threshold P 0.005
T1 construct: made in house; host or cells: HEK293-Flp-In cells, protein purified from the culture medium
Description: (§1) We first set out to validate the hypothesis that cannabinoids might bind ATX to modulate its catalytic function. For this, we used various cannabinoids (Fig 1A) at a fixed concentration of 10 µM for each compound in our biochemical validation with LPC 18:1 (200 µM) as substrates in an end-point assay for ATX-β (UniProt ID: Q13822-1) and ATX-γ (UniProt ID: Q13822-3) (Fig 1B and C). […] In addition, we can exclude interference of the cannabinoid compounds in our enzymatically coupled assay, as no difference is detectable in the absence of ATX and LPC (Fig S1B), performed in the presence of choline.
(§2) ATX lysophospholipase D activity was measured using choline release from LPC 18:1 and LPC 16:0 with a choline quantification kit ([Hausmann et al, 2016]) (Fig S6D). 30 nM ATX-β or ATX-γ was incubated with 200 µM LPC 18:1 or LPC 16:0 in a final volume of 100 µl buffer, which contained 50 mM Tris–HCl (pH 8.5) and 150 mM NaCl. The LPC solution was obtained by evaporating a commercial LPC chloroform solution directly in a 1.5-ml Eppendorf tube under vacuum. The dried LPC was then resuspended in water to obtain the mentioned concentration and incubated at 37°C on a shaker for 5–10 min before addition to the microplate. The cannabinoid solutions were prepared from a stock solution in ethanol or other organic solvents. After initial evaporation and/or dilution to obtain the highest concentration mentioned in the assay figure, a twofold dilution was performed in Eppendorf tubes. All the compounds were dissolved in 100% ethanol as a vehicle.
(§3) The experiments for determining relative inhibition for various cannabinoids were performed at 37°C by adding 10 µM of the cannabinoid or endocannabinoid mentioned. Released choline was detected, and the enzyme activity was determined by measuring fluorescence at λex/λem = 540/590 nm in 96-well plates, every 60 s for 50 min minimum using a CLARIOstar plate reader (BMG Labtech). Absolute values were taken at 25 min after visual inspection, and the 0-min baselines were subtracted to account for compound differences. The relative inhibition values were determined using the normalize method in GraphPad Prism (GraphPad Software, Inc.). Measurements have been performed in triplicate with three different protein preparations. All the compounds were controlled for interference of fluorescence and inhibition in the same assay conditions but in the absence of ATX and replacing LPC with choline.

[2] = target: T2, ATX-β (Homo sapiens, UniProt Q13822); assay: as above; type: biochemical; conditions: 10 µM compound; for inhibition of ATX-β catalysis: LPC 18:1 200 µM; for ANOVA comparison with CTRL, ATX-β inhibition: significance threshold P 0.005
T2 construct: made in house; host or cells: HEK293-Flp-In cells, protein purified from the culture medium
Description: as §1, §2, §3

[3] = target: CB1; conditions: cited from earlier work
[4] = target: CB2; conditions: cited from earlier work
[5] = no reference given; cited from earlier work
[6] = target: T1, ATX-γ; assay: Dose–response choline release assay; type: biochemical; conditions: LPC 18:1
Description: (§4) ATX lysophospholipase D activity was measured using choline release from LPC 18:1 and LPC 16:0 with a choline quantification kit ([Hausmann et al, 2016]). 30 nM ATX-β or ATX-γ was incubated with 200 µM LPC 18:1 or LPC 16:0 in a final volume of 100 µl buffer, which contained 50 mM Tris–HCl (pH 8.5) and 150 mM NaCl. The LPC solution was obtained by evaporating a commercial LPC chloroform solution directly in a 1.5-ml Eppendorf tube under vacuum. The dried LPC was then resuspended in water to obtain the mentioned concentration and incubated at 37°C on a shaker for 5–10 min before addition to the microplate.
(§5) The experiment for determining apparent EC50 for various cannabinoids was performed at 37°C by adding the cannabinoid in a serial twofold dilution for each concentration. The cannabinoid solutions were prepared from a stock solution in ethanol or other organic solvents. After initial evaporation and/or dilution to obtain the highest concentration mentioned in the assay figure, a twofold dilution was performed in Eppendorf tubes. All the compounds were dissolved in 100% ethanol as a vehicle. […] For CBN, 5-DMH-CBD, and CBD, the starting concentration was 50 µM, 150 µM, and 2 mM, respectively. Released choline was detected, and the enzyme activity was determined by measuring fluorescence at λex/λem = 540/590 nm in 96-well plates, every 60 s for 50 min minimum using a CLARIOstar plate reader (BMG Labtech). Initial velocities were taken between 19 and 31 min after visual inspection. The apparent EC50 values were determined using the non-linear regression analysis method (fit: [inhibitor] versus response [three parameter]) in GraphPad Prism (GraphPad Software, Inc.). However, it should be mentioned that the relative concentrations of the different lipids/inhibitors in their physical form as micelles, liposomes, protein-bound, or aggregates are unknown ([Carman et al, 1995]). These uncertainties are widely known, and we provide here an apparent EC50 for consideration. Measurements have been performed in triplicate with three different protein preparations. […]

[7] = target: T2, ATX-β; assay: Dose–response choline release assay; type: biochemical; conditions: LPC 18:1
Description: as §4, §5

[8] = target: T1, ATX-γ; assay: Mode of inhibition analysis with increasing LPC 18:1; type: biochemical; set-up: Vmax: unit not given here
[9] = ref Hunault et al, 2008, cited from earlier work
[10] = tested on: LPA1 receptor internalization in HA/LPA1-transfected HeLa cells; assay: hLPA1 receptor internalization assay; type: cell-based, human

| Compound | inhibition of ATX-γ catalysis [1] | ANOVA comparison with CTRL, ATX-γ inhibition [1] | inhibition of ATX-β catalysis [2] | ANOVA comparison with CTRL, ATX-β inhibition [2] | also measured |
| --- | --- | --- | --- | --- | --- |
| CCCCC/C=C\C/C=C\C/C=C\C/C=C\CCCC(=O)OC(CO)CO [2-AG, 2-arachidonoylglycerol] | did not affect the catalysis | not significantly inhibited | did not affect the catalysis | not significantly inhibited | – |
| CCCCCc1cc(O)c2c(c1)OC(C)(C)C1=C2C[C@H](C)CC1 [6a10aTHC, 9(R)-Δ6a,10a-THC] | further increase in the magnitude of inhibition | – | further increase in the magnitude of inhibition | statistically significant differences | – |
| C=C(C)[C@@H]1CCC(C)=C[C@H]1c1c(O)cc(CCCCC)cc1O [CBD, cannabidiol] | no observable inhibition | – | weak inhibition | statistically significant differences | – |
| CCCCCn1cc(C(=O)c2cccc3ccccc23)c2ccccc21 [JWH018] | did not influence the catalytic activity | not significantly inhibited | did not influence the catalytic activity | not significantly inhibited | Ki ([3]; CB1, ref Aung et al, 2000): 9 ± 8 nM; Ki ([4]; CB2, ref Aung et al, 2000): 2.9 ± 2.7 nM |
| CCCCCc1cc(O)c2c(c1)OC(C)(C)[C@@H]1CCC(C)=C[C@@H]21 [THC, Δ^9-trans-tetrahydrocannabinol] | more than 50% | – | more than 50% | statistically significant differences | binding to CB1 ([3]; ref Pertwee, 2008): low nanomolar regime; binding to CB2 ([4]; ref Pertwee, 2008): low nanomolar regime; bound to plasma proteins [5]: 95–97%; type of inhibitor [6]: partial inhibitor; magnitude of inhibition (maximum inhibition) [7]: around 60%; type of inhibitor [7]: partial inhibitor; Vmax ([8]; 0.35 µM THC (8.5 without THC)): 7.3; Km ([8]; 0.35 µM THC (10.1 without THC)): 19.6 µM; Vmax ([8]; 0.7 µM THC (8.5 without THC)): 6.3; Km ([8]; 0.7 µM THC (10.1 without THC)): 29.9 µM; Vmax ([8]; 1.4 µM THC (8.5 without THC)): 5.0; Km ([8]; 1.4 µM THC (10.1 without THC)): 31.5 µM; mode of inhibition ([8]; ATX-γ, LPC 18:1): mixed-type inhibition; also recorded: mixed-type inhibitor; mean THC peak in serum ([9]; 69.4-mg THC dose, SD = 106.8): 190.4 ng/mL; serum concentration of THC, lower end of range in molar units ([9]; after a 49.1-mg THC dose, equals 59 ng/ml): 190 nM; serum concentration of THC, upper end of range in molar units ([9]; after a 49.1-mg THC dose, equals 421 ng/ml): 1.3 µM; LPA1 internalization ([10]; 30 nM ATX, 150 µM LPC 18:1, 1 µM THC, paired t test P = 0.0008): significantly reduced LPA1 internalization; also recorded: reduced the number of endosomes internalized; LPA1 internalization ([10]; LPA in the presence of THC): LPA1 receptors were internalized; LPA1 internalization ([10]; THC alone (1 µM)): No internalization; inhibition of ATX-LPA signaling (LPA1 internalization) ([10]; higher LPC concentration, 400 µM LPC, P = 0.0068): not abolished |
| CCCCCc1cc2c(c(O)c1C(=O)O)[C@@H]1C=C(C)CC[C@H]1C(C)(C)O2 [Tetrahydrocannabinolic acid, tetrahydrocannabinolic acid] | < 50% | – | < 50% | statistically significant differences | – |
| CCCCC/C=C\C/C=C\C/C=C\C/C=C\CCCC(=O)NCCO [anandamide] | did not affect the catalysis | not significantly inhibited | did not affect the catalysis | not significantly inhibited | – |
| lysophosphatidic acid [LPA] | – | – | – | – | LPA1 internalization ([10]; LPA treatment of cells (1 µM LPA 18:1)): high LPA1 receptor internalization |
